Data on 27 compounds can be found in patent US8343959B2, “N-phenyl-(piperazinyl or homopiperazinyl)-benzenesulfonamide or benzenesulfonyl-phenyl-(piperazine or homopiperazine) compounds suitable for treating disorders that respond to modulation of the serotonin 5-HT6 receptor” (Abbott GmbH & Co. KG, priority 2009, dated 2013).

The assay concerns the target T1, h-5-HT6 receptor (Homo sapiens, UniProt P50406).
T1 construct: expressed in transfected cells
Description: 5-HT6 receptor binding assay (displacement of [3H]-LSD). How it is done:
Displacement of Radioligands Binding to The Following Cloned Human Receptors
Cells from stable clonal cell lines expressing the corresponding receptor (5-HT6, α1-adrenergic, dopamine D2 or histamine H1 receptors) were washed with PBS (w/o Ca^++, Mg^++) and harvested in PBS with 0.02% EDTA. The cells were collected by centrifugation at 500 g for 10 min. at 4° C., washed with PBS and centrifuged (500 g, 10 min. 4° C.). The pellets were stored at −80° C. until use. For membrane preparation, the thawed cell pellet was resuspended in ice-cold sucrose buffer (0.25 M sucrose, 10 mM Hepes (pH 7.4), 1 mM Phenylmethylsulfonyl fluoride (PMSF) in DMSO, 5 μg/ml Pepstatin-A, 3 mM EDTA, 0.025% Bacitracin) and homogenized with a Branson Sonifier W-250 (Settings: Timer 4; Output Control 3; Duty Cycle constant; 2 to 3 cycles). Cell disruption was checked with the aid of a microscope. Remaining unbroken cells were pelleted at 1.000 g for 10 min. at 4° C. The sucrose buffer supernatant was then centrifuged at 60.000 g for 1 h at 4° C. (Beckman Ultrazentrifuge XL 80). The pellet was resuspended in 30 ml ice-cold Tris buffer (20 mM TRIS (pH 7.4), 5 μg/ml Pepstatin A, 0.1 mM PMSF, 3 mM EDTA) by pipetting through a 10 ml serological pipet and centrifuged for 1 h at 4° C. at 60.000 g. A final resuspension was performed in a small volume of ice-cold Tris buffer (see above) by pressing through a serological pipet followed by ultrasonic treatment with a Branson Sonifier W-250 (Settings: Timer 1; Output Control 3; Duty Cycle constant; 1 cycle). Protein concentration was determined (BCA-Kit; Pierce) and aliquots stored at −80° C. or in liquid nitrogen for long-term storage.
All receptor binding experiments were carried out in the corresponding assay buffer in a total volume of 200 μl in the presence of various concentrations of test compound (10^−5 M to 10^−9 M, tenfold serial dilution, duplicate determinations). The assays were terminated by filtration on polyethylenimine (PEI 0.1% or 0.3%) presoaked Packard Unifilter Plates (GF/C or GF/B) with a Tomtec Machin U 96 well-plate harvester. After the plates had been dried for 2 h at 55° C. in a drying chamber scintillation cocktail (BetaPlate Scint; PerkinElmer) was added. Radioactivity was measured in a Microbeta Trilux two hours after the addition of the scintillation mixture. Data derived from liquid scintillation counting were analysed by iterative non-linear regression analysis with the use of the Statistical Analysis System (SAS): a program similar to “LIGAND” as described by Munson and Rodbard (Analytical Biochemistry 107, 220-239 (1980).
HEK293 cells stably expressing the h-5-HT6 receptor (NCBI Reference Sequence XM 001435) were cultured in RPMI1640 medium supplemented with 25 mM HEPES, 10% fetal calf serum and 1-2 mM glutamine. The membrane preparation was performed as described in section 1. […] Non-specific binding was defined with 1 μM methiothepin. The binding reaction was carried out for 3.5 h at room temperature. During the incubation, the plates were shaken on a plate shaker at 100 rpm and terminated by filtration on Packard Unifilter GF/C (0.1% PEI) plates, followed by 2 wash cycles with ice-cold 50 mM Tris-HCl, 5 mM CaCl2.
Data derived from liquid scintillation counting were analyzed by iterative non-linear regression analysis with the use of the Statistical Analysis System (SAS): a program similar to “LIGAND” as described by Munson and Rodbard (Anal. Biochem. 1980, 107, 220-239). Fitting was performed according to formulae described by Feldman (Anal. Biochem. 1972, 48, 317-338). IC50, nH and Ki values were expressed as geometrical mean.

Setting [1] is: membranes of HEK293 cells expressing h-5-HT6 receptor, 1 nM [3H]-LSD, read-out: Ki (5HT6).

pKi: −log10 of the molar value. Where a name gives a salt, the structure may show the parent alone. Read-outs that look alike come from different tables or passages of the source. Some results are limits rather than exact numbers.

T1 sequence (P50406 whole entry): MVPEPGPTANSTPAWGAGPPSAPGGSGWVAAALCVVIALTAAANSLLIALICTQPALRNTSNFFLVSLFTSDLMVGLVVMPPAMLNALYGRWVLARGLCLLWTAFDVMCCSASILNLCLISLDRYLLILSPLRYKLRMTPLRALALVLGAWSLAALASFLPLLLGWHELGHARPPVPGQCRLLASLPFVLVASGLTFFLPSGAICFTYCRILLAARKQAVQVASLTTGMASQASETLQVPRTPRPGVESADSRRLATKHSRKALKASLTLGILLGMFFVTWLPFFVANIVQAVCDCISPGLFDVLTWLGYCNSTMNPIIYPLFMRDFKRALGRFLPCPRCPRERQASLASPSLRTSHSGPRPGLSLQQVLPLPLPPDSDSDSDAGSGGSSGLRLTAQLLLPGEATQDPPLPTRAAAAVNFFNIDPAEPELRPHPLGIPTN

As for `Cc1ccc(S(=O)(=O)Nc2cccc(OC(F)F)c2)cc1N1CCNCC1` [Example 1, N-(3-Difluoromethoxy-phenyl)-4-methyl-3-piperazin-1-yl-benzenesulfonamide hydrochloride], the pKi was greater than 8.00.

Consider `Cc1ccc(S(=O)(=O)Nc2ccccc2OC(F)F)cc1N1CCN(C)CC1` [Example 5, N-(2-Difluoromethoxy-phenyl)-4-methyl-3-(4-methyl-piperazin-1-yl)-benzenesulfonamide hydrochloride], for which the pKi under setting [1] is greater than 7.30.

On to `Cc1ccc(NS(=O)(=O)c2ccc(C)c(N3CCNCC3)c2)cc1OC(F)F` [Example 6, N-(3-Difluoromethoxy-4-methyl-phenyl)-4-methyl-3-piperazin-1-yl-benzene-sulfonamide hydrochloride], for which the pKi under setting [1] was greater than 7.30.

The compound `Cc1ccc(S(=O)(=O)Nc2ccc(OC(F)F)cc2)cc1N1CCNCC1` [Example 7, N-(4-Difluoromethoxy-phenyl)-4-methyl-3-piperazin-1-yl-benzenesulfonamide hydrochloride] gave a pKi greater than 7.30.

As to `Cc1ccc(S(=O)(=O)Nc2cccc3c2OC(F)(F)O3)cc1N1CCNCC1` [Example 8, N-(2,2-Difluoro-benzo[1,3]dioxol-4-yl)-4-methyl-3-piperazin-1-yl-benzenesulfonamide hydrochloride], under setting [1], the pKi is greater than 6.30.

`Cc1ccc(S(=O)(=O)N(CC2CC2)c2ccccc2OC(F)F)cc1N1CCNCC1` [Example 9, N-Cyclopropylmethyl-N-(2-difluoromethoxy-phenyl)-4-methyl-3-piperazin-1-yl-benzenesulfonamide hydrochloride]: under setting [1], the pKi is greater than 6.30.

For `Cc1ccc(S(=O)(=O)N(CC2CC2)c2cccc(OC(F)F)c2)cc1N1CCNCC1` [Example 10, N-Cyclopropylmethyl-N-(3-difluoromethoxy-phenyl)-4-methyl-3-piperazin-1-yl-benzenesulfonamide hydrochloride], the negative logarithm of the Ki (pKi) under setting [1] is greater than 7.30.

Turning to `CCCN(c1ccccc1OC(F)F)S(=O)(=O)c1ccc(C)c(N2CCNCC2)c1` [Example 11, N-(2-Difluoromethoxy-phenyl)-4-methyl-3-piperazin-1-yl-N-propyl-benzene-sulfonamide hydrochloride], under setting [1], the pKi is greater than 6.30.

Consider `CCCN(c1cccc(OC(F)F)c1)S(=O)(=O)c1ccc(C)c(N2CCNCC2)c1` [Example 12, N-(3-Difluoromethoxy-phenyl)-4-methyl-3-piperazin-1-yl-N-propyl-benzenesulfonamide hydrochloride], for which the pKi under setting [1] was greater than 7.30.

For `CCN(c1cccc(OC(F)F)c1)S(=O)(=O)c1ccc(C)c(N2CCNCC2)c1` [Example 13, N-(3-Difluoromethoxy-phenyl)-N-ethyl-4-methyl-3-piperazin-1-yl-benzene sulfonamide hydrochloride], the pKi under setting [1] is greater than 7.30.

For the compound `Cc1ccc(S(=O)(=O)N(C)c2cccc(OC(F)F)c2)cc1N1CCNCC1` [Example 14, N-(3-Difluoromethoxy-phenyl)-4,N-dimethyl-3-piperazin-1-yl-benzenesulfonamide hydrochloride], under setting [1], the pKi is greater than 7.00.

With `CCN(c1ccccc1OC(F)F)S(=O)(=O)c1ccc(C)c(N2CCNCC2)c1` [Example 15, N-(2-Difluoromethoxy-phenyl)-N-ethyl-4-methyl-3-piperazin-1-yl-benzene sulfonamide hydrochloride], under setting [1], the pKi was greater than 6.30.

As for `Cc1ccc(S(=O)(=O)N(C)c2ccccc2OC(F)F)cc1N1CCNCC1` [Example 16, N-(2-Difluoromethoxy-phenyl)-N-methyl-4-methyl-3-piperazin-1-yl-benzene sulfonamide hydrochloride], under setting [1], the pKi is greater than 6.30.

In turn, `Cc1ccc(S(=O)(=O)Nc2ccccc2OC(F)F)cc1N1CCNCC1` [Example 17, N-(2-Difluoromethoxy-phenyl)-4-methyl-3-piperazin-1-yl-benzenesulfonamide hydrochloride] had a pKi greater than 8.00.

For `COc1ccc(S(=O)(=O)Nc2ccc(C)c(OC(F)F)c2)cc1N1CCNCC1` [Example 18, N-(3-Difluoromethoxy-4-methyl-phenyl)-4-methoxy-3-piperazin-1-yl-benzene-sulfonamide hydrochloride], under setting [1], the pKi was greater than 8.00.

Turning to `COc1ccc(S(=O)(=O)Nc2cccc(OC(F)F)c2)cc1N1CCNCC1` [Example 24, N-(3-Difluoromethoxy-phenyl)-4-methoxy-3-piperazin-1-yl-benzenesulfonamide hydrochloride], under setting [1], the negative logarithm of the Ki (pKi) was greater than 8.00.

`COc1ccc(NS(=O)(=O)c2ccc(OC)c(N3CCNCC3)c2)cc1OC(F)F` [Example 25, N-(3-Difluoromethoxy-4-methoxy-phenyl)-4-methoxy-3-piperazin-1-yl-benzenesulfonamide hydrochloride]: the pKi under setting [1] is greater than 8.00.

In the case of `COc1ccc(S(=O)(=O)Nc2ccccc2OC(F)F)cc1N1CCNCC1` [Example 26, N-(2-Difluoromethoxy-phenyl)-4-methoxy-3-piperazin-1-yl-benzenesulfonamide hydrochloride], the pKi under setting [1] is greater than 8.00.

Turning to `COc1ccc(S(=O)(=O)N(C)c2ccccc2OC(F)F)cc1N1CCNCC1` [Example 27, N-(2-Difluoromethoxy-phenyl)-4-methoxy-N-methyl-3-piperazin-1-yl-benzenesulfonamide hydrochloride], under setting [1], the negative logarithm of the Ki (pKi) was greater than 7.30.

Consider `COc1ccc(N(C)S(=O)(=O)c2ccc(OC)c(N3CCNCC3)c2)cc1OC(F)F` [Example 28, N-(3-Difluoromethoxy-4-methoxy-phenyl)-4-methoxy-N-methyl-3-piperazin-1-yl-benzenesulfonamide hydrochloride], for which the pKi under setting [1] was greater than 7.30.

In the case of `CCN(c1cccc(OC(F)F)c1)S(=O)(=O)c1ccc(OC)c(N2CCNCC2)c1` [Example 29, N-(3-Difluoromethoxy-phenyl)-N-ethyl-4-methoxy-3-piperazin-1-yl-benzenesulfonamide hydrochloride], the pKi under setting [1] was greater than 8.00.

For `CCN(c1ccc(OC)c(OC(F)F)c1)S(=O)(=O)c1ccc(OC)c(N2CCNCC2)c1` [Example 30, N-(3-Difluoromethoxy-4-methoxy-phenyl)-N-ethyl-4-methoxy-3-piperazin-1-yl-benzenesulfonamide hydrochloride], the pKi under setting [1] was greater than 8.00.

Consider `CCN(c1ccccc1OC(F)F)S(=O)(=O)c1ccc(OC)c(N2CCNCC2)c1` [Example 31, N-(2-Difluoromethoxy-phenyl)-N-ethyl-4-methoxy-3-piperazin-1-yl-benzenesulfonamide hydrochloride], for which the pKi under setting [1] is greater than 7.30.

Regarding `COc1ccc(S(=O)(=O)N(C)c2cccc(OC(F)F)c2)cc1N1CCNCC1` [Example 32, N-(3-Difluoromethoxy-phenyl)-4-methoxy-N-methyl-3-piperazin-1-yl-benzenesulfonamide hydrochloride], under setting [1], the pKi was greater than 8.00.

Take `CCCN(c1ccc(OC)c(OC(F)F)c1)S(=O)(=O)c1ccc(OC)c(N2CCNCC2)c1` [Example 33, N-(3-Difluoromethoxy-4-methoxy-phenyl)-4-methoxy-3-piperazin-1-yl-N-propyl-benzenesulfonamide hydrochloride]: the pKi under setting [1] is greater than 8.00.

Take `CCCN(c1cccc(OC(F)F)c1)S(=O)(=O)c1ccc(OC)c(N2CCNCC2)c1` [Example 34, N-(3-Difluoromethoxy-phenyl)-4-methoxy-3-piperazin-1-yl-N-propyl-benzenesulfonamide hydrochloride]: under setting [1], the pKi is greater than 8.00.

Consider `COc1ccc(S(=O)(=O)Nc2cccc(OC(F)F)c2)cc1N1CCN(C)CC1` [Example 35, N-(3-Difluoromethoxy-phenyl)-4-methoxy-3-(4-methyl-piperazin-1-yl)-benzenesulfonamide hydrochloride], for which the pKi under setting [1] was greater than 8.00.
